{
  "source": "patent US9085555B2",
  "about": "“Complement pathway modulators and uses thereof” (priority 2011, dated 2015)",
  "data": [
    {"target": "Factor D (Homo sapiens (Human), UniProt P00746)", "sequence (P00746 26-253)": "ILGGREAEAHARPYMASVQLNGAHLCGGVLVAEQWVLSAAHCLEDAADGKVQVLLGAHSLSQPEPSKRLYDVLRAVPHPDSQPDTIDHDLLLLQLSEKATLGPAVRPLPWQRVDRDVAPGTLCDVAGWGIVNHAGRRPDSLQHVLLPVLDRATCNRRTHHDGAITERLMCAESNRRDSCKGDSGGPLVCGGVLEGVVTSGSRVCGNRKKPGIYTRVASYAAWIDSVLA", "assay": "biochemical", "assay_type": "biochemical", "conditions": "read-out: IC50", "units": {"IC50": "nM"}, "values": [
      {"smiles": "C[C@@H](NC(=O)[C@@H]1C[C@@H](F)CN1C(=O)Cn1nc(C(N)=O)c2ccncc21)c1cccc(Cl)c1F", "note": "[Example 690, 1-(2-{(2S,4R)-2-[(R)-1-(3-Chloro-2-fluoro-phenyl)-ethylcarbamoyl]-4-fluoro-pyrrolidin-1-yl}-2-oxo-ethyl)-1H-pyrazolo[3,4-c]pyridine-3-carboxylic acid amide]", "IC50": 34},
      {"smiles": "Cc1cc2c(C(N)=O)nn(CC(=O)N3C[C@H](F)C[C@H]3C(=O)N[C@H](C)c3cccc(Cl)c3F)c2cn1", "note": "[Example 691, 1-(2-{(2S,4R)-2-[(R)-1-(3-Chloro-2-fluoro-phenyl)-ethylcarbamoyl]-4-fluoro-pyrrolidin-1-yl}-2-oxo-ethyl)-5-methyl-1H-pyrazolo[3,4-c] pyridine-3-carboxylic acid amide]", "IC50": 68},
      {"smiles": "NC(=O)c1nn(CC(=O)N2[C@@H]3C[C@@H]3C[C@H]2C(=O)NCc2cccc(Cl)c2F)c2ccccc12", "note": "[Example 692, 1-{2-[(1R,3S,5R)-3-(3-Chloro-2-fluoro-benzylcarbamoyl)-2-aza-bicyclo[3.1.0]hex-2-yl]-2-oxo-ethyl}-1H-indazole-3-carboxylic acid amide]", "IC50": 3},
      {"smiles": "Cc1nccc2c(C(N)=O)nn(CC(=O)N3[C@@H]4C[C@@H]4C[C@H]3C(=O)N[C@H](C)c3cccc(Cl)c3F)c12", "note": "[Example 693, 1-(2-{(1R,3S,5R)-3-[(R)-1-(3-Chloro-2-fluoro-phenyl)-ethylcarbamoyl]-2-aza-bicyclo[3.1.0]hex-2-yl}-2-oxo-ethyl)-7-methyl-1H-pyrazolo[3,4-c]pyridine-3-carboxylic acid amide]", "IC50": 6},
      {"smiles": "Cc1nccc2c(C(N)=O)nn(CC(=O)N3[C@@H]4C[C@@H]4C[C@H]3C(=O)NCc3cccc(Cl)c3F)c12", "note": "[Example 694, 1-{2-[(1R,3S,5R)-3-(3-Chloro-2-fluoro-benzylcarbamoyl)-2-aza-bicyclo[3.1.0]hex-2-yl]-2-oxo-ethyl}-7-methyl-1H-pyrazolo[3,4-c]pyridine-3-carboxylic acid amide]", "IC50": 17},
      {"smiles": "Cc1cc2c(C(N)=O)nn(CC(=O)N3[C@@H]4C[C@@H]4C[C@H]3C(=O)NCc3cccc(Cl)c3F)c2c(C)n1", "note": "[Example 695, 1-{2-[(1R,3S,5R)-3-(3-Chloro-2-fluoro-benzylcarbamoyl)-2-aza-bicyclo[3.1.0]hex-2-yl]-2-oxo-ethyl}-5,7-dimethyl-1H-pyrazolo[3,4-c]pyridine-3-carboxylic acid amide]", "IC50": 15},
      {"smiles": "Cc1cc2c(C(N)=O)nn(CC(=O)N3[C@@H]4C[C@@H]4C[C@H]3C(=O)N[C@H](C)c3cccc(Cl)c3F)c2c(C)n1", "note": "[Example 696, 1-(2-{(1R,3S,5R)-3-[(R)-1-(3-Chloro-2-fluoro-phenyl)-ethylcarbamoyl]-2-aza-bicyclo[3.1.0]hex-2-yl}-2-oxo-ethyl)-5,7-dimethyl-1H-pyrazolo[3,4-c]pyridine-3-carboxylic acid amide]", "IC50": 101},
      {"smiles": "CCc1cc2c(C(N)=O)nn(CC(=O)N3C[C@H](F)[C@@H](OC)[C@H]3C(=O)NCc3cccc(Cl)c3F)c2cn1", "note": "[Example 697, 1-{2-[(2S,3S,4S)-2-(3-Chloro-2-fluoro-benzylcarbamoyl)-4-fluoro-3-methoxy-pyrrolidin-1-yl]-2-oxo-ethyl}-5-ethyl-1H-pyrazolo[3,4-c]pyridine-3-carboxylic acid amide]", "IC50": 3},
      {"smiles": "C[C@@H](NC(=O)[C@@H]1C[C@H]2C[C@H]2N1C(=O)Cn1nc(C(N)=O)c2cc(C(F)(F)F)ncc21)c1cccc(Cl)c1F", "note": "[Example 699, 1-(2-{(1R,3S,5R)-3-[(R)-1-(3-Chloro-2-fluoro-phenyl)-ethylcarbamoyl]-2-aza-bicyclo[3.1.0]hex-2-yl}-2-oxo-ethyl)-5-trifluoromethyl-1H-pyrazolo[3,4-c]pyridine-3-carboxylic acid amide]", "IC50": 118},
      {"smiles": "NC(=O)c1nn(CC(=O)N2[C@@H]3C[C@@H]3C[C@H]2C(=O)NCc2cccc(Cl)c2F)c2cnc(C3CC3)cc12", "note": "[Example 700, 1-{2-[(1R,3S,5R)-3-(3-Chloro-2-fluoro-benzylcarbamoyl)-2-aza-bicyclo[3.1.0]hex-2-yl]-2-oxo-ethyl}-5-cyclopropyl-1H-pyrazolo[3,4-c]pyridine-3-carboxylic acid amide]", "IC50": 6},
      {"smiles": "C[C@@H](NC(=O)[C@@H]1C[C@H]2C[C@H]2N1C(=O)Cn1nc(C(N)=O)c2cc(C3CC3)ncc21)c1cccc(Cl)c1F", "note": "[Example 701, 1-(2-{(1R,3S,5R)-3-[(R)-1-(3-Chloro-2-fluoro-phenyl)-ethylcarbamoyl]-2-aza-bicyclo[3.1.0]hex-2-yl}-2-oxo-ethyl)-5-cyclopropyl-1H-pyrazolo[3,4-c]pyridine-3-carboxylic acid amide]", "IC50": 15},
      {"smiles": "NC(=O)c1nn(CC(=O)N2[C@@H]3C[C@@H]3C[C@H]2C(=O)NCc2cccc(Cl)c2F)c2cnccc12", "note": "[Example 703, 1-(2-((1R,3S,5R)-3-((3-Chloro-2-fluorobenzyl)carbamoyl)-2-azabicyclo[3.1.0]hexan-2-yl)-2-oxoethyl)-1H-pyrazolo[3,4-c]pyridine-3-carboxamide]", "IC50": 10},
      {"smiles": "CC(=O)c1cn(CC(=O)N2[C@@H]3C[C@@H]3C[C@H]2C(=O)NCc2cccc(Cl)c2F)c2nc(C(=O)O)ccc12", "note": "[Example 704, 3-Acetyl-1-{2-[(1R,3S,5R)-3-(3-chloro-2-fluoro-benzylcarbamoyl)-2-aza-bicyclo[3.1.0]hex-2-yl]-2-oxo-ethyl}-1H-pyrrolo[2,3-b]pyridine-6-carboxylic acid]", "IC50": 23},
      {"smiles": "NC(=O)c1nn(CC(=O)N2[C@@H]3C[C@@H]3C[C@H]2C(=O)NCc2cccc(Cl)c2F)c2c[n+]([O-])ccc12", "note": "[Example 705, 3-Carbamoyl-1-(2-((1R,3S,5R)-3-(3-chloro-2-fluorobenzylcarbamoyl)-2-azabicyclo[3.1.0]hexan-2-yl)-2-oxoethyl)-1H-pyrazolo[3,4-c]pyridine 6-oxide]", "IC50": 21},
      {"smiles": "C[C@@H](NC(=O)[C@@H]1C[C@H]2C[C@H]2N1C(=O)Cn1nc(C(N)=O)c2cc[n+]([O-])cc21)c1cccc(Cl)c1F", "note": "[Example 706, 3-Carbamoyl-1-(2-((1R,3S,5R)-3-((R)-1-(3-chloro-2-fluorophenyl)ethyl-carbamoyl)-2-azabicyclo[3.1.0]hexan-2-yl)-2-oxoethyl)-1H-pyrazolo[3,4-c]pyridine 6-oxide]", "IC50": 45},
      {"smiles": "NC(=O)c1nn(CC(=O)N2[C@@H]3C[C@@H]3C[C@H]2C(=O)Nc2cccc(OC(F)(F)F)c2F)c2ccccc12", "note": "[Example 707, 1-{2-[(1R,3S,5R)-3-(2-Fluoro-3-trifluoromethoxy-phenylcarbamoyl)-2-aza-bicyclo[3.1.0]hex-2-yl]-2-oxo-ethyl}-1H-indazole-3-carboxylic acid amide]", "IC50": 88},
      {"smiles": "NC(=O)c1nn(CC(=O)N2C[C@H](F)C[C@H]2C(=O)Nc2cccc(OC(F)(F)F)c2F)c2ccccc12", "note": "[Example 708]", "IC50": 54},
      {"smiles": "NC(=O)c1nn(CC(=O)N2[C@@H]3C[C@@H]3C[C@H]2C(=O)Nc2cccc(OC(F)(F)F)c2F)c2ccncc12", "note": "[Example 709, 1-(2-((1R,3S,5R)-3-(2-fluoro-3-(trifluoromethoxy)phenylcarbamoyl)-2-azabicyclo[3.1.0]hexan-2-yl)-2-oxoethyl)-1H-pyrazolo[4,3-c] pyridine-3-carboxamide]", "IC50": 144},
      {"smiles": "COC(=O)c1ccc2c(C(C)=O)nn(CC(=O)N3[C@@H]4C[C@@H]4C[C@H]3C(=O)Nc3cccc(OC(F)(F)F)c3F)c2c1", "note": "[Example 710, Methyl 3-acetyl-1-(2-((1R,3S,5R)-3-(2-fluoro-3-(trifluoromethoxy)phenylcarbamoyl)-2-azabicyclo [3.1.0]hexan-2-yl)-2-oxoethyl)-1H-indazole-6-carboxylate]", "IC50": 52},
      {"smiles": "CC(=O)c1nn(CC(=O)N2[C@@H]3C[C@@H]3C[C@H]2C(=O)Nc2cccc(OC(F)(F)F)c2F)c2ncccc12", "note": "[Example 711, (1R,3S,5R)-2-[2-(3-Acetyl-pyrazolo[3,4-b]pyridin-1-yl)-acetyl]-2-aza-bicyclo[3.1.0]hexane-3-carboxylic acid (2-fluoro-3-trifluoromethoxy-phenyl)-amide]", "IC50": 71},
      {"smiles": "CCc1cc2c(C(N)=O)nn(CC(=O)N3[C@@H]4C[C@@H]4C[C@H]3C(=O)Nc3cccc(OC(F)(F)F)c3F)c2cn1", "note": "[Example 712, 5-Ethyl-1-{2-[(1R,3S,5R)-3-(2-fluoro-3-trifluoromethoxy-phenylcarbamoyl)-2-aza-bicyclo[3.1.0]hex-2-yl]-2-oxo-ethyl}-1H-pyrazolo[3,4-c]pyridine-3-carboxylic acid amide]", "IC50": 38},
      {"smiles": "Cc1cc2c(cn1)c(C(N)=O)nn2CC(=O)N1[C@@H]2C[C@@H]2C[C@H]1C(=O)Nc1cccc(OC(F)(F)F)c1F", "note": "[Example 713, 1-{2-[(1R,3S,5R)-3-(2-Fluoro-3-trifluoromethoxy-phenylcarbamoyl)-2-aza-bicyclo[3.1.0]hex-2-yl]-2-oxo-ethyl}-6-methyl-1H-pyrazolo[4,3-c]pyridine-3-carboxylic acid amide]", "IC50": 260},
      {"smiles": "COc1cc2c(C(N)=O)nn(CC(=O)N3[C@@H]4C[C@@H]4C[C@H]3C(=O)Nc3cccc(OC(F)(F)F)c3F)c2cn1", "note": "[Example 714, 1-{2-[(1R,3S,5R)-3-(2-Fluoro-3-trifluoromethoxy-phenylcarbamoyl)-2-aza-bicyclo[3.1.0]hex-2-yl]-2-oxo-ethyl}-5-methoxy-1H-pyrazolo[3,4-c]pyridine-3-carboxylic acid amide]", "IC50": 300},
      {"smiles": "CCc1cc2c(C(N)=O)nn(CC(=O)N3C[C@H](F)C[C@H]3C(=O)Nc3cccc(OC(F)(F)F)c3F)c2cn1", "note": "[Example 715, 5-Ethyl-1-{2-[(2S,4R)-4-fluoro-2-(2-fluoro-3-trifluoromethoxy-phenylcarbamoyl)-pyrrolidin-1-yl]-2-oxo-ethyl}-1H-pyrazolo[3,4-c]pyridine-3-carboxylic acid amide]", "IC50": 27},
      {"smiles": "Cc1nccc2c(C(N)=O)nn(CC(=O)N3[C@@H]4C[C@@H]4C[C@H]3C(=O)Nc3cccc(OC(F)(F)F)c3F)c12", "note": "[Example 716, 1-{2-[(1R,3S,5R)-3-(2-Fluoro-3-trifluoromethoxy-phenylcarbamoyl)-2-aza-bicyclo[3.1.0]hex-2-yl]-2-oxo-ethyl}-7-methyl-1H-pyrazolo[3,4-c]pyridine-3-carboxylic acid amide]", "IC50": 46}
    ]}
  ]
}
